Laboratory results: US20020098186A1, “Use of endothelin inhibitors for treatment or prevention of fibrotic disorders” (priority 1999, published 2002)

Key:
[1] = test system: liver collagen; assay: Liver collagen (hydroxyproline) content in BDO rats; assay type: in vivo, rat
Method: Female adult wistar rats, average weight 206±19 g, underwent the following microsurgical procedure under an operating microscope (OPMI 6-2, Zeiss, Germany) (B. Gerling, M. Becker, J. Waldschmidt, D. Schuppan (1996). J. Hepatol. 25:79-84; G. Boigk, L. Stroedter, H. Herbst H, et al. (1997). Hepatology 26:643-639.): 1. midline abdominal incision following anaesthesia with 100 mg/kg ketamine-hydroochloride (Ketanest®, Parke-Davis, Germany) and 10 mg/kg 5,6-dihydro-2-(2,6-xylidino)-4H-1,3-thiazine-hydrochloride (Rompun®, Bayer, Germany); 2. dissection of the common bile duct, insertion of a teflon catheter (Abbocath -T 26 G, venisystems, U.S.A.) and placement of a distal complete and a proximal incomplete ligature with 5-0 silk (Permahand , Ethicon, Germany); 3. retrograde injection of sodium-amidotrizoate (Ethibloc®, Ethicon Germany) at a dose of 0.02 ml/100 g body weight; 4. removal of the catheter, closure of the proximal ligature, scission of the bile duct between the ligatures and wound closure. After bile duct occlusion (BDO), animals received normal chow (Altromin®, Lage, Germany) and were allowed free access to water. […] The following therapeutic groups were formed: 1. BDO and LU at 80 mg/kg/d for 6 weeks (BDO 80/1-6:n=20); 2. BDO and LU at 80 mg/kg/d from week 4-6 of BDO (BDO 80/4-6:n=20); 3. BDO and LU at 10 mg/kg/d (sham 80/ 1-6:n=10), rats without medication (control: n=10) and bile duct occluded animals without treatment for 6 weeks (BDO: n=20) served as controls. […]
Hydroxyproline (HYP) was quantified in duplicates from 0.2 g of formalin-fixed liver as described (d. Schuppan, J. M. Dumont, K. Y. Kim, et al (1986). J. Hepatol. 3:27-37; C. Genovese; D. Rowe; B. Kream (1984). Biochemistry 23. 6210-6216.). […] Absorption was read at 558 nm and HYP concentrations were determined from a standard curve with 0 to 1.6 μg HYP (Merck, Germany). The hepatic HYP concentration was calculated using the formula [formula]
and the total liver HYP content calculated by multiplication with the liver weight.

[2] = test system: rat secondary biliary liver fibrosis (BDO); assay: Histological assessment (staging) of liver fibrosis in BDO rats; assay type: in vivo
Method: Female adult wistar rats, average weight 206±19 g, underwent the following microsurgical procedure under an operating microscope (OPMI 6-2, Zeiss, Germany) (B. Gerling, M. Becker, J. Waldschmidt, D. Schuppan (1996). J. Hepatol. 25:79-84; G. Boigk, L. Stroedter, H. Herbst H, et al. (1997). Hepatology 26:643-639.): 1. midline abdominal incision following anaesthesia with 100 mg/kg ketamine-hydroochloride (Ketanest®, Parke-Davis, Germany) and 10 mg/kg 5,6-dihydro-2-(2,6-xylidino)-4H-1,3-thiazine-hydrochloride (Rompun®, Bayer, Germany); 2. dissection of the common bile duct, insertion of a teflon catheter (Abbocath -T 26 G, venisystems, U.S.A.) and placement of a distal complete and a proximal incomplete ligature with 5-0 silk (Permahand , Ethicon, Germany); 3. retrograde injection of sodium-amidotrizoate (Ethibloc®, Ethicon Germany) at a dose of 0.02 ml/100 g body weight; 4. removal of the catheter, closure of the proximal ligature, scission of the bile duct between the ligatures and wound closure. After bile duct occlusion (BDO), animals received normal chow (Altromin®, Lage, Germany) and were allowed free access to water. […] The following therapeutic groups were formed: 1. BDO and LU at 80 mg/kg/d for 6 weeks (BDO 80/1-6:n=20); 2. BDO and LU at 80 mg/kg/d from week 4-6 of BDO (BDO 80/4-6:n=20); 3. BDO and LU at 10 mg/kg/d (sham 80/ 1-6:n=10), rats without medication (control: n=10) and bile duct occluded animals without treatment for 6 weeks (BDO: n=20) served as controls.
For each liver 1 μm paraffin sections of the right and the left lobe were stained with hematoxylin/eosin, trichrome (Masson-Goldner) and silver impregnation (Gomori), and scores (see below of both lobes averaged. Inflammation and necrosis were graded according to the histological activity index of Knodell et al. (R. G. Knodell, K. G. Ishak, W. C. Black, et al. (1981). Hepatology 1:431-435.). Staging of fibrosis was modified from (G. Boigk, L. Stroedter, H. Herbst H, et al. (1997). Hepatology 26:643-649.) as follows: stage 0; normal; stage I: portal fiels marginally expanded by bile ductules; stage II: expanded portal fields which occasionally […] each other; stage III: markedly expanded portal fields, all of which broadly contact each other, separating hepatocellular islands; stage IV: the liver is entirely filled with fibrotic biliary proliferations that entrap few residual hepatocytes (severe cirrhosis). Scores of the right and left lobes were averaged to give single numerical values for each liver.

[3] = BDO/LU 80/1-6: LU 80 mg/kg/d week 1-6
[4] = BDO/LU 80/4-6: LU 80 mg/kg/d week 4-6

**Q.** What does the source list for `COc1cc(OC)nc(O[C@H](C(=O)O)C(OC)(c2ccccc2)c2ccccc2)n1` [LU]?
**A.** Reduction of relative liver collagen ([1]; 10 mg/kg/d over 6 weeks of BDO): 35%; Reduction of hepatic collagen ([1]; 80 mg LU/kg/d from week 4-6 after BDO, p<0.001): ~50%; Reduction of liver collagen (both as relative and total liver collagen content) ([1]; 80 mg LU/kg/d over the 6 weeks of BDO, vs untreated BDO, p<0.001): 50-55%; Histological assessment of fibrosis: animals at Stage I [2, 3]: 2; Histological assessment of fibrosis: animals at Stage II [2, 3]: 4; Histological assessment of fibrosis: animals at Stage III [2, 3]: 4; Histological assessment of fibrosis: animals at Stage I [2, 4]: 4; Histological assessment of fibrosis: animals at Stage II [2, 4]: 5; Histological assessment of fibrosis: animals at Stage III [2, 4]: 3; Histological assessment of fibrosis: animals at Stage IV [2, 4]: 2; Histological assessment of fibrosis: animals at Stage I ([2]; headed BDO/LU 80/1-6): 8; Histological assessment of fibrosis: animals at Stage II ([2]; headed BDO/LU 80/1-6): 5; Histological assessment of fibrosis: animals at Stage III ([2]; headed BDO/LU 80/1-6): 4; Histological assessment of fibrosis: animals at Stage IV ([2]; headed BDO/LU 80/1-6): 3; Histological fibrosis score ([2]; rats with BDO, administration of LU): improved histological fibrosis score; Architectural distortion of the liver, semiquantitatively graded ([2]; rats with BDO, low-dose vs high-dose group (not shown)): even more significantly reduced in the low-than in the high-dose group
